Results reported in the NIST ThermoML archive (doi:10.1016/j.fluid.2014.10.003).
Values joined by “and” are separate entries in the source; they are usually repeats but may differ in a detail not shown here. Identical values can stand only once. ± gives the expanded uncertainty stated by the source.

Conditions: Liquid, Vibrating tube method

CCCCC(CC)COC(=O)c1ccc(C(=O)OCC(CC)CCCC)c(C(=O)OCC(CC)CCCC)c1 (configuration not stated) [tris(2-ethylhexyl) trimellitate]
Conditions	mass density
293.15 K, 100 kPa	988.2 ± 2 kg/m3
293.15 K, 2510 kPa	989.6 ± 2 kg/m3
293.15 K, 5000 kPa	991 ± 2 kg/m3
293.15 K, 7510 kPa	992.4 ± 2 kg/m3
293.15 K, 10010 kPa	993.8 ± 2 kg/m3
293.15 K, 15010 kPa	996.6 ± 2 kg/m3
293.15 K, 19990 kPa	999.2 ± 2 kg/m3
293.15 K, 30010 kPa	1004.3 ± 2 kg/m3
293.15 K, 40020 kPa	1009.2 ± 2 kg/m3
293.15 K, 50030 kPa	1013.8 ± 2 kg/m3
293.15 K, 68010 kPa	1021.5 ± 2.1 kg/m3
313.15 K, 100 kPa	973.4 ± 2 kg/m3
313.15 K, 2500 kPa	974.9 ± 2 kg/m3
313.15 K, 2510 kPa	974.9 ± 2 kg/m3
313.15 K, 5020 kPa	976.4 ± 2 kg/m3 and 976.5 ± 2 kg/m3
313.15 K, 7490 kPa	977.9 ± 2 kg/m3
313.15 K, 10010 kPa	979.4 ± 2 kg/m3 and 979.5 ± 2 kg/m3
313.15 K, 15010 kPa	982.4 ± 2 kg/m3
313.15 K, 20000 kPa	985.3 ± 2 kg/m3
313.15 K, 30030 kPa	990.8 ± 2 kg/m3
313.15 K, 40000 kPa	996 ± 2 kg/m3
313.15 K, 40020 kPa	996 ± 2 kg/m3
313.15 K, 50000 kPa	1001 ± 2 kg/m3
313.15 K, 68000 kPa	1009.3 ± 2 kg/m3
333.15 K, 100 kPa	958.9 ± 1.9 kg/m3
333.15 K, 2500 kPa	960.4 ± 1.9 kg/m3 and 960.5 ± 1.9 kg/m3
333.15 K, 5000 kPa	962.1 ± 1.9 kg/m3
333.15 K, 7510 kPa	963.8 ± 1.9 kg/m3
333.15 K, 10010 kPa	965.4 ± 1.9 kg/m3
333.15 K, 15010 kPa	968.6 ± 1.9 kg/m3
333.15 K, 20000 kPa	971.6 ± 2 kg/m3
333.15 K, 30010 kPa	977.6 ± 2 kg/m3
333.15 K, 39990 kPa	983.1 ± 2 kg/m3
333.15 K, 50000 kPa	988.4 ± 2 kg/m3
333.15 K, 67990 kPa	997.2 ± 2 kg/m3
353.15 K, 100 kPa	944.5 ± 1.9 kg/m3
353.15 K, 2490 kPa	946.2 ± 1.9 kg/m3
353.15 K, 5020 kPa	948.1 ± 1.9 kg/m3
353.15 K, 7510 kPa	949.8 ± 1.9 kg/m3
353.15 K, 10020 kPa	951.6 ± 1.9 kg/m3
353.15 K, 14990 kPa	955 ± 1.9 kg/m3
353.15 K, 20010 kPa	958.3 ± 1.9 kg/m3
353.15 K, 30000 kPa	964.7 ± 1.9 kg/m3
353.15 K, 40020 kPa	970.6 ± 2 kg/m3
353.15 K, 49990 kPa	976.2 ± 2 kg/m3
353.15 K, 68000 kPa	985.5 ± 2 kg/m3
373.15 K, 100 kPa	930.1 ± 1.9 kg/m3
373.15 K, 2510 kPa	932 ± 1.9 kg/m3
373.15 K, 5020 kPa	934 ± 1.9 kg/m3
373.15 K, 7500 kPa	935.9 ± 1.9 kg/m3
373.15 K, 10040 kPa	937.9 ± 1.9 kg/m3
373.15 K, 15000 kPa	941.6 ± 1.9 kg/m3
373.15 K, 20030 kPa	945.2 ± 1.9 kg/m3
373.15 K, 30010 kPa	952 ± 1.9 kg/m3
373.15 K, 40020 kPa	958.3 ± 1.9 kg/m3
373.15 K, 49990 kPa	964.3 ± 1.9 kg/m3
373.15 K, 68010 kPa	974.2 ± 2 kg/m3
